Laboratory results as given in patent US9832992B1, “Microbicidal composition” (Dow Global Technologies LLC, priority 2013, dated 2017).
Read-outs that look alike come from different tables or passages of the source.

What was measured:
Assay type in all cases: cell-based
[1] = test system: Candida albicans ATCC#10203; test: MIC / synergy index test in 96 well microtiter plates, yeast
Description: (§1) Surfactants and biocides were evaluated for synergy by determining the synergy index (S.I.) of the combination. Synergy index was calculated based on minimum inhibitory concentrations (MIC) of two antimicrobial compounds (A and B) alone and in combinations. The tests organisms were Gram negative bacteria (Pseudomonas aeruginosa ATCC #15442), Gram positive bacteria (Staphylococcus aureus ATCC #6538), yeast (Candida albicans ATCC#10203) and mold (Aspergillus niger ATCC#16404). Contact time for the bacteria was 24 and 48 hours, yeast was 48 and 72 hrs, and 3 and 7 days for mold. The test was carried out in 96 well microtiter plates.
(§2) SI is calculated as follows: Ca/CA+Cb/CB=Synergy Index (“SI”)
(§3) Wherein: • CA=concentration of compound A in ppm, acting alone, which produced an end point (MIC of Compound A). • Ca=concentration of compound A in ppm, in the mixture, which produced an end point. • CB=concentration of compound B in ppm, acting alone, which produced an end point (MIC of Compound B). • Cb=concentration of compound B in ppm, in the mixture, which produced an end point. When the sum of Ca/CA and Cb/CB is greater than one, antagonism is indicated.

[2] = test system: Aspergillus niger ATCC#16404; test: MIC / synergy index test in 96 well microtiter plates, mold
Description: as §1, §2, §3

[3] = test system: Staphylococcus aureus ATCC #6538; test: MIC / synergy index test in 96 well microtiter plates, Gram positive bacteria
Description: as §1, §2, §3

[4] = test system: Pseudomonas aeruginosa ATCC #15442; test: MIC / synergy index test in 96 well microtiter plates, Gram negative bacteria
Description: as §1, §2, §3

Row | Compound | CB (MIC of compound B alone) ([1]; B: BNPD; table with Surf. E; 48 hrs; Media: PDB; Inoculum size: 1.808E+06 CFU/ml) [ppm] | MIC ([1]; Candida albicans, ATCC10203, 48 h; read-out: CB (MIC of compound B alone)) [µg/mL] | MIC ([2]; Aspergillus niger, ATCC16404; read-out: CB (MIC of compound B alone)) [µg/mL] | CB (MIC of compound B alone) ([3]; B: BNPD; table with Surf. E; 24 hrs; Media: 1/10 TSB; Inoculum size: 1.808E+06 CFU/ml) [ppm] | MIC ([3]; Staphylococcus aureus, ATCC6538, 24 h; read-out: CB (MIC of compound B alone)) [µg/mL] | CB (MIC of compound B alone) ([4]; B: BNPD; table with Surf. D; 24 hrs; Media: 1/10 TSB; Inoculum size: 1.16E+08) [ppm] | CB (MIC of compound B alone) ([4]; B: BNPD; table with Surf. E; 24 hrs; Media: 1/10 TSB; Inoculum size: 5.727E+07 CFU/ml) [ppm] | MIC ([4]; Pseudomonas aeruginosa, ATCC15442, 24 h; read-out: CB (MIC of compound B alone)) [µg/mL] | CB (MIC of compound B alone) ([1]; B: DAZOMET; table with Surf. D; 48 hrs; Media: PDB; Inoculum size: 5.72E+05) [ppm] | MIC ([1]; Candida albicans, ATCC10203, 48 h, read-out: CB (MIC of compound B alone)) [µg/mL] | CB: MIC of B (DAZOMET) alone ([2]; A. niger ATCC #16404; 3rd day; Media: PDB; Inoculum size: 1.156E+06; table with A: Surf. E) [PPM AI] | CB: MIC of B (DAZOMET) alone ([2]; A. niger ATCC #16404; 3rd day; Media: PDB; Inoculum size: 1.56E+06; table with A: Surf. D) [PPM AI] | MIC ([2]; Aspergillus niger, ATCC16404, read-out: CB (MIC of compound B alone)) [µg/mL] | CB: MIC of B alone ([3]; B: DAZOMET alone; 24 hrs; Media 1/10 TSB; inoculum 5.72E+05) [PPM AI] | MIC ([3]; Staphylococcus aureus, ATCC6538, 24 h, read-out: CB (MIC of compound B alone)) [µg/mL] | MIC ([4]; Pseudomonas aeruginosa, ATCC15442, 24 h, read-out: CB (MIC of compound B alone)) [µg/mL]
1 | O=[N+]([O-])C(Br)(CO)CO [BNPD, 2-bromo-2-nitropropane-1,3-diol] | 1000 | 1000 | 1000 | 20 | 20 | 10 | 10 | 10 |  |  |  |  |  |  |  | 
2 | CN1CSC(=S)N(C)C1 [DAZOMET, tetrahydro-3,5-dimethyl-2H-1,3,5-thiadiazine-2-thione] |  |  |  |  |  |  |  |  | 50 | 50 | 30 | 40 | 60 | 200 | 200 | 80
